Test results from patent US9028856B2, “Synergistic pesticide compositions” (priority 2008, dated 2015).

Columns and labels:
[1] = tested on: Musca domestica, susceptible strain WHO(N); assay: Topical insecticide application to houseflies; type: in vivo; details: 0.5 μl per fly, % a.i. conc. in acetone, Table 95
Procedure: Male Musca domestica, susceptible strain WHO(N), or other strains were used.
The flies were anaesthetized with CO2, and ten individuals were positioned (on their back) on a filter paper which was on the top of a carbon dioxide emitting device. […]
Afterwards the insects were transferred into a beaker closed by a gauze lid with a water saturated cotton pad on the top.
At regular intervals, mortality was recorded (cumulatively).

[2] = tested on: Musca domestica, susceptible strain WHO(N); assay: Contact efficacy against houseflies on filter papers in glass dishes; type: in vivo; details: % a.i. conc. in acetone on filter papers, Table 97
Procedure: Male Musca domestica, susceptible strain WHO(N), were used.
A solution of the active ingredient in acetone was prepared. A concentration row was made. After evaporation of the acetone (30′), the dishes were closed by a glass lid and transferred into the test room. One day later twenty flies, anaesthetized with CO2, are counted into each dish. At regular intervals, knock down was recorded (cumulatively). Each test consisted of one replicate. […]

[3] = tested on: housefly, Musca domestica; assay: Housefly continuous exposure on treated glazed tile (paper cup arena); type: in vivo; details: Table 58, housefly, glazed tile, continuous exposure; for Average % Knockdown & Mortality after 1 hr: adjuvant = Compound A 1% + Compound B 0.5%
From the text: Treatments were allowed to dry overnight. The housefly testing arena consisted of a 16 oz. paper cup where the bottom of the cup was removed and replaced with a piece of standard window screen. Ten adult houseflies (mixed ratio) were placed in each cup and covered with a 4″×5″ index card to prevent escape. Houseflies were continuously exposed to the treatment by inverting the testing arena and sliding the cup from the index card to the treated tile surface. Treatments were replicated a minimum of three times.

[4] = tested on: susceptible/normal German cockroach (Monheim strain), Blattella germanica; assay: Knockdown/mortality of male cockroaches under continuous exposure on treated glazed tile; type: in vivo; details: glazed tile; for Average % Knockdown & Mortality after 3 hr / Average % Knockdown & Mortality after 5 hr / Average % Knockdown & Mortality after 24 hr / Average % Knockdown & Mortality after 1 hr: Table 61, German cockroach (Monheim), continuous exposure; for Average % Knockdown & Mortality after 1 hr: adjuvant = Compound A 1% + Compound B 0.5%
Method in brief: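 Male cockroaches continuously exposed on treated glazed tile, dried overnight before exposure; at least three replicates. Knockdown/mortality scored at intervals from 5 or 10 min, over runs lasting 20 min to 24 h depending on test.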

[5] = tested on: Odorous House ant, Tapinoma sessile; assay: Knockdown/mortality of ant workers under continuous exposure on treated glazed tile; type: in vivo; details: Table 59, Odorous House ant, glazed tile, continuous exposure; for Average % Knockdown & Mortality after 15 min: adjuvant = Compound A 1% + Compound B 0.5%
Method in brief: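 Each tile surface (about 5″×5″) was treated, left to dry overnight and tested in a minimum of three replicates.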

[6] = tested on: Red Imported Fire ant (RIFA), Solenopsis invicta; assay: as above; type: in vivo; details: for Average % Mortality after 1 hr / Average % Mortality after 1.5 hr / Average % Mortality after 2 hr / Average % Mortality after 3 hr / Average % Mortality after 30 min: Table 60, Red Imported Fire ant, continuous exposure; for Average % Mortality after 30 min: adjuvant = Compound A 1% + Compound B 0.5%
From the text: Treatments were allowed to dry overnight. […] Treatments were replicated minimum three times.
(§1) Treatments were allowed to dry overnight. […] Treatments were replicated a minimum of three times.

[7] = tested on: Argentine ant, Linepithema humile; assay: as above; details: continuous exposure; for Average % Mortality after 15 min: adjuvant = Compound A 1% + Compound B 0.5%
Method in brief: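 0.5% AI imidacloprid in acetone, alone or with 0.1, 1.0 or 5.0% additive (benzenepropanoic acid, oleic acid, methyl oleate, methyl linoleate, methyl palmitate or BHA), 1 ml dried overnight on glazed tile (~161 cm^2). Ten workers confined under continuous exposure, water from 3 h; knockdown/mortality scored at intervals and 24 h; ≥3 replicates.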

[8] = tested on: bait averse/resistant German cockroach (IHOP strain), Blattella germanica; assay: Knockdown/mortality of male cockroaches under continuous exposure on treated glazed tile; type: in vivo; details: German cockroach IHOP
Procedure: Treatments were allowed to dry overnight. […] Treatments were replicated a minimum of three times. Evaluations for cockroach knockdown/mortality were made at various intervals for 1 hour and at 24 hours after exposure.
Treatments were allowed to dry overnight. […] Evaluations for cockroach knockdown/mortality were made at various intervals and at 60 minutes after exposure.
as §1

[9] = Table 57, Argentine ant, glazed tile

Compound	Average % Knockdown & Mortality after 3 hr [3]	Average % Knockdown & Mortality after 5 hr [3]	Average % Knockdown & Mortality after 7 hr [3]	Average % Knockdown & Mortality after 24 hr [3]	Average % Knockdown & Mortality after 1 hr [3]	Average % Knockdown & Mortality after 3 hr [4]	Average % Knockdown & Mortality after 5 hr [4]	Average % Knockdown & Mortality after 24 hr [4]	Average % Knockdown & Mortality after 1 hr [4]	Average % Knockdown & Mortality after 30 min [5]	Average % Knockdown & Mortality after 45 min [5]	Average % Knockdown & Mortality after 60 min [5]	Average % Knockdown & Mortality after 2 hr [5]	Average % Knockdown & Mortality after 15 min [5]	Average % Mortality after 1 hr ([6]; glazed tile)	Average % Mortality after 1.5 hr ([6]; glazed tile)	Average % Mortality after 2 hr ([6]; glazed tile)	Average % Mortality after 3 hr ([6]; glazed tile)	Average % Mortality after 30 min ([6]; glazed tile)	Average % Mortality after 30 min [7, 9]	other results
Cc1ccc(O)c(-n2nc3ccccc3n2)c1 [0.5% Compound B]	–	–	–	–	–	–	–	–	–	–	–	–	–	–	–	–	–	–	–	–	% Mortality after ([1]; 15′): 0%; % Mortality after ([1]; 30′): 0%; % Mortality after ([1]; 1 h): 0%; % Mortality after ([1]; 2 h): 0%; % Mortality after ([1]; 4 h): 0%; % Mortality after ([1]; 1 d): 60%; % knock down after ([2]; 15′): 0%; % knock down after ([2]; 30′): 0%; % knock down after ([2]; 1 h): 0%; % knock down after ([2]; 1.5 h): 0%; % knock down after ([2]; 2 h): 0%; % knock down after ([2]; 3 h): 0%; % knock down after ([2]; 4 h): 0%; % knock down after ([2]; 6 h): 0%; % knock down after ([2]; 1 d): 70%
CC[S+]([O-])c1c(C#N)nn(-c2c(Cl)cc(C(F)(F)F)cc2Cl)c1N (stereo not shown) [Ethiprole (0.01%)]	0%	0%	3%	100%	0%	0%	7%	13%	0%	0%	0%	0%	3%	0%	0%	0%	0%	3%	0%	0%	Average % Mortality after 10 min ([7]; Table 54, Trial 1, acetone solution on glazed tile): 0%; Average % Mortality after 30 min ([7]; Table 54, Trial 1, glazed tile): 0%; Average % Mortality after 60 min ([7]; Table 54, Trial 1, glazed tile): 0%; Average % Mortality after 90 min ([7]; Table 54, Trial 1, glazed tile): 0%; Average % Mortality after 2 hr ([7]; Table 54, Trial 1, glazed tile): 0%; Average % Mortality after 4 hr ([7]; Table 54, Trial 1, glazed tile, 4 hr): 16%; Average % Mortality after 24 hr ([7]; Table 54, Trial 1, glazed tile): 100%; Average % Mortality after 10 min ([7]; Table 55, Trial 2, glazed tile): 0%; Average % Mortality after 30 min ([7]; Table 55, Trial 2, glazed tile): 0%; Average % Mortality after 60 min ([7]; Table 55, Trial 2, glazed tile): 0%; Average % Mortality after 90 min ([7]; Table 55, Trial 2, glazed tile): 0%; Average % Mortality after 2 hr ([7]; Table 55, Trial 2, glazed tile): 0%; Average % Mortality after 3 hr ([7]; Table 55, Trial 2, glazed tile, 3 hr): 6%; Average % Mortality after 24 hr ([7]; Table 55, Trial 2, glazed tile): 72%; Average % Mortality after 45 min [7, 9]: 0%; Average % Mortality after 60 min [7, 9]: 0%; Average % Mortality after 15 min [7, 9]: 0%
CC[S+]([O-])c1c(C#N)nn(-c2c(Cl)cc(C(F)(F)F)cc2Cl)c1N (stereo not shown) [Ethiprole (0.1%)]	0%	3%	10%	100%	0%	27%	33%	80%	0%	0%	0%	0%	0%	0%	0%	0%	0%	10%	0%	0%	Average % Mortality after 45 min [7, 9]: 0%; Average % Mortality after 60 min [7, 9]: 0%; Average % Mortality after 15 min [7, 9]: 0%
CC1(C)C(C=C(Cl)Cl)C1C(=O)OCc1cccc(Oc2ccccc2)c1 (stereo not shown) [permethrin, reference compound]	–	–	–	–	–	–	–	–	–	–	–	–	–	–	–	–	–	–	–	–	toxicity / efficacy of the substance alone (summary in words) ([4]; German cockroach Monheim): effective; toxicity / efficacy of the substance alone (summary in words) ([6]; RIFA, glazed tile): active; time at which near 100% mortality was achieved ([6]; permethrin 0.5% AI with or without adjuvant (FIG. 39)): about 13 minutes; toxicity / efficacy of the substance alone (summary in words) [8]: very fast acting
